Source: PubChem BioAssay AID1919014 (Molecular Pharmacology Branch, DTP, NCI, 2023)
One block for each molecule: values may come before it.

Tested on: NCI-H1341 complex spheroids, percent test/control
Test: Anticancer human tumor NCI-H1341 cell line growth inhibition [AhR];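 note: spheroids exposed to agents for seven days before readout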
Conditions: for IC50: curve of first compound; for viability, T/C: stronger effect = lower value
In short: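 Complex tumor spheroids co-cultured with HUVEC and human MSC stroma; AhR antagonists tested in combination with standard-of-care and investigational agents. Top concentration at or near clinical Cmax (else 10 microM), half-log dilutions; growth expressed as percent test/control.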

- IC50 (second compound 0.1 µM): > 10 µM
- IC50 (second compound 0.316 µM): > 10 µM
- IC50 (second compound 1 µM): > 10 µM
- IC50 (second compound 3.16 µM): > 10 µM
- IC50 (second compound 10 µM): < 0.0316 µM
Compound: CC1(C)CCC(CN2CCN(c3ccc(C(=O)NS(=O)(=O)c4ccc(NCC5CCOCC5)c([N+](=O)[O-])c4)c(Oc4cnc5[nH]ccc5c4)c3)CC2)=C(c2ccc(Cl)cc2)C1 + Cc1cncc(-c2nc(NCCc3c[nH]c4ccccc34)c3ncn(C(C)C)c3n2)c1
- viability, T/C (second compound 0.1 µM, first compound 0.0316 µM): 94.9%
- viability, T/C (second compound 0.1 µM, first compound 0.1 µM): 77.2%
- viability, T/C (second compound 0.1 µM, first compound 0.316 µM): 81.5%
- viability, T/C (second compound 0.1 µM, first compound 1 µM): 77%
- viability, T/C (second compound 0.1 µM, first compound 3.16 µM): 64.9%
- viability, T/C (second compound 0.1 µM, first compound 10 µM): 68.3%
- viability, T/C (second compound 0.316 µM, first compound 0.0316 µM): 86.6%
- viability, T/C (second compound 0.316 µM, first compound 0.1 µM): 77.9%
- viability, T/C (second compound 0.316 µM, first compound 0.316 µM): 71.3%
- viability, T/C (second compound 0.316 µM, first compound 1 µM): 73.3%
- viability, T/C (second compound 0.316 µM, first compound 3.16 µM): 66.1%
- viability, T/C (second compound 0.316 µM, first compound 10 µM): 78.1%
- viability, T/C (second compound 1 µM, first compound 0.0316 µM): 79.4%
- viability, T/C (second compound 1 µM, first compound 0.1 µM): 80.9%
- viability, T/C (second compound 1 µM, first compound 0.316 µM): 81.6%
- viability, T/C (second compound 1 µM, first compound 1 µM): 71.8%
- viability, T/C (second compound 1 µM, first compound 3.16 µM): 63.9%
- viability, T/C (second compound 1 µM, first compound 10 µM): 60.3%
- viability, T/C (second compound 3.16 µM, first compound 0.0316 µM): 70.6%
- viability, T/C (second compound 3.16 µM, first compound 0.1 µM): 66.7%
- viability, T/C (second compound 3.16 µM, first compound 0.316 µM): 66.1%
- viability, T/C (second compound 3.16 µM, first compound 1 µM): 53.9%
- viability, T/C (second compound 3.16 µM, first compound 3.16 µM): 64.1%
- viability, T/C (second compound 3.16 µM, first compound 10 µM): 70.5%
- viability, T/C (second compound 10 µM, first compound 0.0316 µM): 49.9%
- viability, T/C (second compound 10 µM, first compound 0.1 µM): 43.3%
- viability, T/C (second compound 10 µM, first compound 0.316 µM): 45.2%
- viability, T/C (second compound 10 µM, first compound 1 µM): 39.8%
- viability, T/C (second compound 10 µM, first compound 3.16 µM): 42%
- viability, T/C (second compound 10 µM, first compound 10 µM): 41.9%

- IC50 (second compound 0.1 µM): > 3 µM
- IC50 (second compound 0.316 µM): > 3 µM
- IC50 (second compound 1 µM): > 3 µM
- IC50 (second compound 3.16 µM): > 3 µM
- IC50 (second compound 10 µM): < 0.00949 µM
Compound: CCN(c1cc(-c2ccc(CN3CCOCC3)cc2)cc(C(=O)NCc2c(C)cc(C)[nH]c2=O)c1C)C1CCOCC1 + Cc1cncc(-c2nc(NCCc3c[nH]c4ccccc34)c3ncn(C(C)C)c3n2)c1
- viability, T/C (second compound 0.1 µM, first compound 0.00949 µM): 72.4%
- viability, T/C (second compound 0.1 µM, first compound 0.03 µM): 91.7%
- viability, T/C (second compound 0.1 µM, first compound 0.0949 µM): 68.9%
- viability, T/C (second compound 0.1 µM, first compound 0.3 µM): 70.9%
- viability, T/C (second compound 0.1 µM, first compound 0.949 µM): 74.5%
- viability, T/C (second compound 0.1 µM, first compound 3 µM): 63.9%
- viability, T/C (second compound 0.316 µM, first compound 0.00949 µM): 97.3%
- viability, T/C (second compound 0.316 µM, first compound 0.03 µM): 82.3%
- viability, T/C (second compound 0.316 µM, first compound 0.0949 µM): 89%
- viability, T/C (second compound 0.316 µM, first compound 0.3 µM): 76.1%
- viability, T/C (second compound 0.316 µM, first compound 0.949 µM): 85%
- viability, T/C (second compound 0.316 µM, first compound 3 µM): 76.8%
- viability, T/C (second compound 1 µM, first compound 0.00949 µM): 69.5%
- viability, T/C (second compound 1 µM, first compound 0.03 µM): 86.7%
- viability, T/C (second compound 1 µM, first compound 0.0949 µM): 69.8%
- viability, T/C (second compound 1 µM, first compound 0.3 µM): 72%
- viability, T/C (second compound 1 µM, first compound 0.949 µM): 65%
- viability, T/C (second compound 1 µM, first compound 3 µM): 57.5%
- viability, T/C (second compound 3.16 µM, first compound 0.00949 µM): 66.1%
- viability, T/C (second compound 3.16 µM, first compound 0.03 µM): 77.3%
- viability, T/C (second compound 3.16 µM, first compound 0.0949 µM): 66.4%
- viability, T/C (second compound 3.16 µM, first compound 0.3 µM): 67.3%
- viability, T/C (second compound 3.16 µM, first compound 0.949 µM): 56.7%
- viability, T/C (second compound 3.16 µM, first compound 3 µM): 54.4%
- viability, T/C (second compound 10 µM, first compound 0.00949 µM): 40.6%
- viability, T/C (second compound 10 µM, first compound 0.03 µM): 41.7%
- viability, T/C (second compound 10 µM, first compound 0.0949 µM): 44.1%
- viability, T/C (second compound 10 µM, first compound 0.3 µM): 33.4%
- viability, T/C (second compound 10 µM, first compound 0.949 µM): 34.4%
- viability, T/C (second compound 10 µM, first compound 3 µM): 32.5%
